# Data: publication PMC8002452, “Molecular Basis of AmpC β-Lactamase Induction by Avibactam in Pseudomonas aeruginosa: PBP Occupancy, Live Cell Binding Dynamics and Impact on Resistant Clinical Isolates Harboring PDC-X Variants” (International Journal of Molecular Sciences, 2021)
# What was measured:
# PBP1a = target: T1, PBP1a (Pseudomonas aeruginosa, UniProt Q07806); assay: PBP-binding affinity (IC50), bocillin FL, isolated membranes; design: species or system P. aeruginosa PAO1; details: PAO1 membranes 0.5 mg/mL, 30 min, 25 µM bocillin FL
# T1 construct: PBP-containing membranes were isolated by ultracentrifugation; endogenous in cells; host or cells: P. aeruginosa PAO1 wild type (membrane preparations or intact cells)
# Method: (§1) PBP-binding affinity was determined using previously described methods. Briefly, P. aeruginosa PAO1 cultures grown to the midexponential phase (7.6 log10 CFU/mL) were incubated in CAMHB at 37 °C and 180 rpm, washed and centrifuged (3220× g for 10 min at 4 °C). Bacterial pellets were washed in 30 mL of PBS buffer (pH 7.5), resuspended in 10 mL of PBS and sonicated at 40% amplitude for three 2 min bursts (while immersed in an ice bath) and centrifuged at 3220× g for 15 min at 4 °C. PBP-containing membranes were isolated by ultracentrifugation at 150,000× g for 30 min at 4 °C. Total protein concentrations were measured through the Bradford method.
# (§2) Subsequently, the fluorescent penicillin bocillin FL was added to a 25 μM final concentration. Labeled PBPs were denatured and separated through 4–15% SDS–polyacrylamide gel electrophoresis. Labeled PBPs were visualized using a Typhoon FLA 9500 biomolecular imager (GE Healthcare Bio-Sciences AB, Uppsala, Sweden) (excitation at 488 nm and emission at 530 nm), and binding was determined from at least three independent experiments using ImageQuant TL software v8.1.0.0 (GE Healthcare Bio-Sciences AB, Uppsala, Sweden).
# PBP1b = PBP1b (Pseudomonas aeruginosa, UniProt G3XD31); assay: as above; design: species or system P. aeruginosa PAO1; details: PAO1 membranes 0.5 mg/mL, 30 min, 25 µM bocillin FL; read-out: Mean IC50 ± SD, PBP 1b (converted)
# Method: as §1, §2
# PBP2 = target: T2, PBP2 (Pseudomonas aeruginosa, UniProt Q9X6V3); assay: as above; design: species or system P. aeruginosa PAO1; details: PAO1 membranes 0.5 mg/mL, 30 min, 25 µM bocillin FL; read-out: Mean IC50 ± SD, PBP 2 (converted)
# T2 construct: PBP-containing membranes were isolated by ultracentrifugation; endogenous in cells; host or cells: P. aeruginosa PAO1 wild type (membrane preparations or intact cells)
# Method: as §1, §2
# PBP4 [1] = target: T3, PBP4 (Pseudomonas aeruginosa, UniProt Q9HZG1); assay: as above; design: species or system P. aeruginosa PAO1; details: PAO1 membranes 0.5 mg/mL, 30 min, 25 µM bocillin FL; read-out: Mean IC50 ± SD, PBP 4 (converted)
# Method: as §1, §2
# PBP5/6 [2] = target: T4, PBP5/6 (Pseudomonas aeruginosa, UniProt G3XD74); assay: as above; design: species or system P. aeruginosa PAO1; details: PAO1 membranes 0.5 mg/mL, 30 min, 25 µM bocillin FL; read-out: Mean IC50 ± SD, PBP 5/6 (converted)
# Method: as §1, §2
# PBP4 [3] = target: T3, PBP4; assay: Isolated PBP-containing membranes time-course binding assay; design: species or system P. aeruginosa PAO1; details: isolated PAO1 membranes, 4 µg/mL avibactam, 15-60 min; read-out: PBP4 total fraction bound
# Method: (§3) Figure 2 Time-course of intact cells and isolated PBP-binding assay. P. aeruginosa PAO1 cultures (a) and isolated PBP-containing membrane preparations (b) were incubated for 15, 30 and 60 min in the presence of 4 µg/mL avibactam (AVI). After isolating PBP-containing membranes, preparations were labeled with 25 µM bocillin FL. The graphs represent the PBP fraction unbound relative to each time control over time. The mean PBP fraction unbound values from at least three independent experiments ± standard deviations are shown.
# (§4) In parallel to the aforementioned assay, we performed analogous experiments in which isolated PBP-containing membrane preparations instead of intact cells were pre-exposed to avibactam. Briefly, membrane preparations containing PBPs were obtained by following previously described protocols and were incubated for 15, 30 and 60 min at 37 °C in the presence of 4 µg/mL avibactam and were afterwards labeled with bocillin FL (25 μM). Determination of the PBP fraction unbound was performed as described in the above section.
# PBP5/6 [4] = target: T4, PBP5/6; assay: as above; design: species or system P. aeruginosa PAO1; details: isolated PAO1 membranes, 4 µg/mL avibactam, 15-60 min; read-out: PBP5/6 total fraction bound
# Method: as §3, §4
# [5] = system: ampC mRNA in 101-E5 (CAZ/AVI-sensitive ST175 clinical isolate); assay: qRT-PCR quantification of AmpC induction; type: cell-based, P. aeruginosa; details: IPM 8, FOX 64, AVI 16 µg/mL, relative to strain basal t=0
# Method: (§5) Samples were taken at 0, 30 and 180 min. Total RNA was extracted with the RNeasy Mini Kit (Qiagen, Hilden, Germany) and treated with TURBO DNase (Thermo Fisher Scientific, Waltham, MA, USA) to remove contaminating DNA. Samples were afterwards normalized to 50 ng/µL.
# (§6) Normalized samples were then used for one-step reverse transcription and real-time PCR amplification using the QuantiTect SYBR green qRT-PCR kit (Qiagen, Hilden, Germany) in a CFX Connect Real-Time PCR System (Bio-Rad, Hercules, California, USA). Previously described primer pairs ACrnaF/ACrnaR and rpsL-1/rpsL-2 were used for the amplification of ampC and housekeeping gene rpsL, respectively. The mean values of relative mRNA expression (2^−ΔΔCt) obtained from at least two independent biological replicates and duplicate technical replicates were considered.
# [6] = system: ampC mRNA in 103-H8 (AmpC E247K; PDC-221, CAZ/AVI-resistant ST175 clinical isolate); assay: qRT-PCR quantification of AmpC induction; type: cell-based, P. aeruginosa; details: IPM 8, FOX 64, AVI 16 µg/mL, relative to strain basal t=0
# Method: as §5, §6
# [7] = system: ampC mRNA in 109-E9 (CAZ/AVI-sensitive ST175 clinical isolate); assay: qRT-PCR quantification of AmpC induction; type: cell-based, P. aeruginosa; details: IPM 8, FOX 64, AVI 16 µg/mL, relative to strain basal t=0
# Method: as §5, §6
# T3 sequence (Q9HZG1 entry or part of it): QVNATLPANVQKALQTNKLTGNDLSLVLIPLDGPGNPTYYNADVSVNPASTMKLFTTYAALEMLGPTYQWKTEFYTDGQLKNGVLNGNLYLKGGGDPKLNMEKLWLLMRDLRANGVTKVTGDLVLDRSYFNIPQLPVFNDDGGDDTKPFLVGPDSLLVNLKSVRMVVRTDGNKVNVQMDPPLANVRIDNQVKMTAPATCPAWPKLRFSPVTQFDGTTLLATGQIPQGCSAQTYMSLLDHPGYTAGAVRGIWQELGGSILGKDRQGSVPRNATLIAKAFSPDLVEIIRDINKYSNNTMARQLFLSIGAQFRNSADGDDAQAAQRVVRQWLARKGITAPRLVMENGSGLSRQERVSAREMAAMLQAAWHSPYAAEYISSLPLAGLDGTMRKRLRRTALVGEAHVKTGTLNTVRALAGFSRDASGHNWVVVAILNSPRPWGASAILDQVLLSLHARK
# T1 sequence (Q07806 whole entry): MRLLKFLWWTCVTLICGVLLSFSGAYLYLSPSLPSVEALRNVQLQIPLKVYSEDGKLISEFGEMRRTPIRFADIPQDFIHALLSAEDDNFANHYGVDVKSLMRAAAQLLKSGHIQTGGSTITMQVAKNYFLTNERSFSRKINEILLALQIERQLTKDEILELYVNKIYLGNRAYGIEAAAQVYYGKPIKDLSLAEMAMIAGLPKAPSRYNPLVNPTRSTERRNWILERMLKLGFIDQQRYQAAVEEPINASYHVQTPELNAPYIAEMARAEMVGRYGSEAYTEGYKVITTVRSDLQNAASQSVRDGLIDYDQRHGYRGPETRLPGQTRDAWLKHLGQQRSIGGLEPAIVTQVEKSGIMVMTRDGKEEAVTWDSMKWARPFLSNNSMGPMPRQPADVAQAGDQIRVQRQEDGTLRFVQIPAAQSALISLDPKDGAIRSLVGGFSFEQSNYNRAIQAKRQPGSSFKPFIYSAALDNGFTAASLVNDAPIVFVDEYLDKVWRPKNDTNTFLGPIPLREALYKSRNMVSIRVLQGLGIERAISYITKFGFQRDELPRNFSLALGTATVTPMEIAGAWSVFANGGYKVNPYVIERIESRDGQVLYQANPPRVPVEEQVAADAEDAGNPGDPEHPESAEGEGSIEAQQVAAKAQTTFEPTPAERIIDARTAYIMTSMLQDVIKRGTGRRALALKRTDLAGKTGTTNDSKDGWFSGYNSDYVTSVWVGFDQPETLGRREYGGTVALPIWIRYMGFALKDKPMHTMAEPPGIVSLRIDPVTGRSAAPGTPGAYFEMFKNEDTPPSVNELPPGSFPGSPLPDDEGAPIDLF
# T4 sequence (G3XD74 entry or part of it): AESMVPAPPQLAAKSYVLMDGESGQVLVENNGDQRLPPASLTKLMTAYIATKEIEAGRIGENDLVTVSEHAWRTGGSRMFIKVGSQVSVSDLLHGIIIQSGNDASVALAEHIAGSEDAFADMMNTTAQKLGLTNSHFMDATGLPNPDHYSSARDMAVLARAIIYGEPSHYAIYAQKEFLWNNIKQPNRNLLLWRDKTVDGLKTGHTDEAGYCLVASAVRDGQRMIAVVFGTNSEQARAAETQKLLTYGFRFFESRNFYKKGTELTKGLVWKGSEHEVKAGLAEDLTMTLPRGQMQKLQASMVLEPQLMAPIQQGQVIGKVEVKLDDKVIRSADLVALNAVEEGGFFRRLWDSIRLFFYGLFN
# T2 sequence (Q9X6V3 entry or part of it): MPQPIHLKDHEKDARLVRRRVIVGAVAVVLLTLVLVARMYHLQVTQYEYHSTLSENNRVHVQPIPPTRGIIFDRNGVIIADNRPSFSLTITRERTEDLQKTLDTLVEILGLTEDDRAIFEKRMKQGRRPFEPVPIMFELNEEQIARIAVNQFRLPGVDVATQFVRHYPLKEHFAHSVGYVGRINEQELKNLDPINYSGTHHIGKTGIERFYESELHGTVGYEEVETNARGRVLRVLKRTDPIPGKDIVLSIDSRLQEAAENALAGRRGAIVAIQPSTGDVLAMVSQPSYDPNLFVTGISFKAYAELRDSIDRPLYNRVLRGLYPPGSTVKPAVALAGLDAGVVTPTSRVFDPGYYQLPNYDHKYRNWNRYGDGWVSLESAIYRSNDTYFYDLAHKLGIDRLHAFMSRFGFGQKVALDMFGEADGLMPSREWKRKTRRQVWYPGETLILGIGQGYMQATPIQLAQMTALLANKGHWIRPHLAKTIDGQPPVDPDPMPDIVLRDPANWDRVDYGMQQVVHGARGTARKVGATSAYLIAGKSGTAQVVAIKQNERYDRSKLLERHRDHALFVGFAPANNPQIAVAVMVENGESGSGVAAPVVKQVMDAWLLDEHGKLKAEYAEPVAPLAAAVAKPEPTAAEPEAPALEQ
# Chain of PBP1b (G3XD31 entry or part of it): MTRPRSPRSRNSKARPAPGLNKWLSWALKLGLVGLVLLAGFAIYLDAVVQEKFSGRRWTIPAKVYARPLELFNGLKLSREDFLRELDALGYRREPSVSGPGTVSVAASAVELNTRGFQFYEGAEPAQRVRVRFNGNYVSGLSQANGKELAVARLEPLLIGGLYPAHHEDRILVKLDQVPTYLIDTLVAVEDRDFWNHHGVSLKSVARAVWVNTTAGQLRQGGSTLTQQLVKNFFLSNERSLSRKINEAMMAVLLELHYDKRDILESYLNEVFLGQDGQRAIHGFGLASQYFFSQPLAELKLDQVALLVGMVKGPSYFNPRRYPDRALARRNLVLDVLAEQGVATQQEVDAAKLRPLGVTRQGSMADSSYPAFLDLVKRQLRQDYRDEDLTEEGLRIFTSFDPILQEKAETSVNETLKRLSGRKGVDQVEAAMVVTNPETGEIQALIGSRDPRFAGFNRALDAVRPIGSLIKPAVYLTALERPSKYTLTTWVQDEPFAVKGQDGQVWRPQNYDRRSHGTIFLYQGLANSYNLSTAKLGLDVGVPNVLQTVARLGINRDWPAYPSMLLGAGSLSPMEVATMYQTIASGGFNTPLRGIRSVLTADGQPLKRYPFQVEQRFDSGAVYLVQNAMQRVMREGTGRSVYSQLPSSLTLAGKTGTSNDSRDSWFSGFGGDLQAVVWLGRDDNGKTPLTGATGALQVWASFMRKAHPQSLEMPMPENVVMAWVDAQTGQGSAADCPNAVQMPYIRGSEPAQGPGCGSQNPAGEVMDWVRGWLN
structure (smiles),measurement,setting,value
NC(=O)[C@@H]1CC[C@@H]2CN1C(=O)N2OS(=O)(=O)O [Avibactam],"Mean IC50 ± SD, PBP 1a",PBP1a,no PBP1a and 3 binding was detected
same,IC50,"PBP1a; read-out: Mean IC50 ± SD, PBP 1a (converted)",> 121 µM
same,IC50,PBP1b,13.6 µM
same,IC50,PBP2,15.8 µM
same,IC50,PBP4 [1],11.7 µM
same,IC50,PBP5/6 [2],8.29 µM
same,inhibition at 4 µg/mL,PBP4 [3],≤ 68%
same,inhibition at 4 µg/mL,PBP5/6 [4],≤ 82%
same,Relative ampC expression,"[5]; 101-E5, 0 min",1.2
same,Relative ampC expression,"[5]; 101-E5, 30 min",0.5
same,Relative ampC expression,"[5]; 101-E5, 180 min",3.1
same,Relative ampC expression,"[6]; 103-H8, 0 min",1.4
same,Relative ampC expression,"[6]; 103-H8, 30 min",2.1
same,Relative ampC expression,"[6]; 103-H8, 180 min",6.9
same,Relative ampC expression,"[7]; 109-E9, 0 min",0.9
same,Relative ampC expression,"[7]; 109-E9, 30 min",1.5
same,Relative ampC expression,"[7]; 109-E9, 180 min",6.2
